The supplement of paper PMC10307832

Experiments:
Assay in all cases: relative viability (nuclei count vs DMSO), 5 days (fraction); higher = more cells survive
Seliciclib + Palbociclib = compound: CC[C@H](CO)Nc1nc(NCc2ccccc2)c2ncn(C(C)C)c2n1 [Seliciclib] + CC(=O)c1c(C)c2cnc(Nc3ccc(N4CCNCC4)cn3)nc2n(C2CCCC2)c1=O [Palbociclib] (partner 0.5 µM)
How it was run: (§1)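 The day after seeding in 1536-well plates, lung cancer cell lines were treated by pin tool with a single drug, or with a fixed anchor-drug dose together with five library-drug doses (not always all listed) in √10 steps. After 5 days, a combined fix-and-stain solution (final 0.05% Triton X-100, 1% formaldehyde, 1 ug/ml Hoechst) was added. Nuclei counted on 4× images gave relative viability as treated counts over vehicle counts, reported as the median of duplicate plates.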

Seliciclib + Luminespib = compound: CC[C@H](CO)Nc1nc(NCc2ccccc2)c2ncn(C(C)C)c2n1 [Seliciclib] + CCNC(=O)c1noc(-c2cc(C(C)C)c(O)cc2O)c1-c1ccc(CN2CCOCC2)cc1 [Luminespib] (partner 0.01 µM)
How it was run: as §1

Seliciclib + OSI-027 = compound: CC[C@H](CO)Nc1nc(NCc2ccccc2)c2ncn(C(C)C)c2n1 [Seliciclib] + COc1cccc2cc(-c3nc([C@H]4CC[C@H](C(=O)O)CC4)n4ncnc(N)c34)[nH]c12 [OSI-027] (partner 0.5 µM)
How it was run: as §1

Seliciclib + Pictilisib = compound: CC[C@H](CO)Nc1nc(NCc2ccccc2)c2ncn(C(C)C)c2n1 [Seliciclib] + CS(=O)(=O)N1CCN(Cc2cc3nc(-c4cccc5[nH]ncc45)nc(N4CCOCC4)c3s2)CC1 [Pictilisib] (partner 1 µM)
How it was run: as §1

| Cell Line | relative viability (Seliciclib + Palbociclib; first compound 0.08 µM) | relative viability (Seliciclib + Palbociclib; first compound 0.253 µM) | relative viability (Seliciclib + Palbociclib; first compound 0.8 µM) | relative viability (Seliciclib + Palbociclib; first compound 2.53 µM) | relative viability (Seliciclib + Palbociclib; first compound 8 µM) | relative viability (Seliciclib + Luminespib; first compound 0.08 µM) | relative viability (Seliciclib + Luminespib; first compound 0.253 µM) | relative viability (Seliciclib + Luminespib; first compound 0.8 µM) | relative viability (Seliciclib + Luminespib; first compound 2.53 µM) | relative viability (Seliciclib + Luminespib; first compound 8 µM) | relative viability (Seliciclib + OSI-027; first compound 0.08 µM) | relative viability (Seliciclib + OSI-027; first compound 0.253 µM) | relative viability (Seliciclib + OSI-027; first compound 0.8 µM) | relative viability (Seliciclib + OSI-027; first compound 2.53 µM) | relative viability (Seliciclib + OSI-027; first compound 8 µM) | relative viability (Seliciclib + Pictilisib; first compound 0.08 µM) | relative viability (Seliciclib + Pictilisib; first compound 0.253 µM) | relative viability (Seliciclib + Pictilisib; first compound 0.8 µM) | relative viability (Seliciclib + Pictilisib; first compound 2.53 µM) | relative viability (Seliciclib + Pictilisib; first compound 8 µM) |
| --- | --- | --- | --- | --- | --- | --- | --- | --- | --- | --- | --- | --- | --- | --- | --- | --- | --- | --- | --- | --- |
| NCI-H1944 | 0.354 | 0.312 | 0.28 | 0.261 | 0.268 | 0.69 | 0.716 | 0.613 | 0.791 | 0.549 | 0.442 | 0.343 | 0.376 | 0.26 | 0.341 | 0.375 | 0.35 | 0.333 | 0.283 | 0.303 |
| LC-2-ad | 0.49 | 0.524 | 0.494 | 0.466 | 0.371 | 0.895 | 1.02 | 0.988 | 0.985 | 0.834 | 0.902 | 0.901 | 0.827 | 0.453 | 0.799 | 0.487 | 0.572 | 0.34 | 0.205 | 0.0269 |
| HCC-15 | 0.846 | 0.782 | 0.666 | 0.726 | 0.493 | 0.275 | 0.386 | 0.304 | 0.33 | 0.309 | 0.691 | 0.757 | 0.584 | 0.427 | 0.442 | 0.705 | 0.857 | 0.473 | 0.791 | 0.548 |
| NCI-H2405 | 0.485 | 0.483 | 0.552 | 0.361 | 0.452 | 0.676 | 0.661 | 0.799 | 0.385 | 0.548 | 0.616 | 0.669 | 0.689 | 0.291 | 0.555 | 0.462 | 0.43 | 0.314 | 0.288 | 0.35 |
| LXF-289 | 0.561 | 0.677 | 0.59 | 0.543 | 0.501 | 0.603 | 0.778 | 0.545 | 0.642 | 0.56 | 0.781 | 0.667 | 0.769 | 0.421 | 0.762 | 0.779 | 0.86 | 0.701 | 0.595 | 0.724 |
| CAL-12T | 0.524 | 0.469 | 0.354 | 0.226 | 0.207 | 0.351 | 0.411 | 0.363 | 0.388 | 0.313 | 0.746 | 0.504 | 0.763 | 0.321 | 0.357 | 0.304 | 0.566 | 0.39 | 0.303 | 0.221 |
| COR-L23 | 0.298 | 0.315 | 0.262 | 0.19 | 0.165 | 0.658 | 0.67 | 0.579 | 0.871 | 0.556 | 0.808 | 0.604 | 0.7 | 0.671 | 0.627 | 0.63 | 0.782 | 0.86 | 0.584 | 0.49 |
| NCI-H1755 | 0.417 | 0.477 | 0.342 | 0.433 | 0.412 | 0.573 | 0.565 | 0.444 | 0.406 | 0.407 | 0.633 | 0.714 | 0.738 | 0.515 | 0.691 | 0.414 | 0.504 | 0.389 | 0.339 | 0.386 |
| NCI-H1437 | 0.323 | 0.324 | 0.298 | 0.221 | 0.223 | 0.999 | 1.2 | 1.05 | 1.05 | 0.809 | 0.844 | 0.877 | 0.99 | 0.52 | 0.787 | 0.484 | 0.377 | 0.439 | 0.394 | 0.331 |
| NCI-H2085 | 0.472 | 0.44 | 0.419 | 0.41 | 0.314 | 0.508 | 0.462 | 0.414 | 0.398 | 0.372 | 0.803 | 0.679 | 0.59 | 0.685 | 0.577 | 0.504 | 0.533 | 0.394 | 0.493 | 0.425 |
| H3255 | 0.344 | 0.314 | 0.306 | 0.26 | 0.293 | 0.868 | 1.05 | 0.94 | 0.833 | 0.917 | 0.596 | 0.642 | 0.626 | 0.532 | 0.579 | 0.47 | 0.567 | 0.487 | 0.483 | 0.502 |
| NCI-H650 | 0.357 | 0.264 | 0.402 | 0.248 | 0.234 | 0.807 | 0.757 | 0.921 | 0.727 | 0.709 | 0.539 | 0.497 | 0.651 | 0.313 | 0.495 | 0.887 | 0.869 | 1.04 |  | 0.772 |
| LCLC-103H | 0.524 | 0.51 | 0.486 | 0.469 | 0.423 | 1.02 | 0.958 | 0.763 | 0.993 | 0.774 | 0.452 | 0.47 | 0.456 | 0.319 | 0.487 | 0.819 | 0.673 | 0.627 | 0.434 | 0.576 |
| LOU-NH91 |  | 0.56 | 0.513 | 0.492 | 0.466 | 0.318 | 0.332 | 0.293 | 0.305 | 0.276 | 0.741 | 0.693 | 0.674 | 0.592 | 0.644 | 0.49 | 0.573 | 0.495 | 0.484 | 0.468 |
| NCI-H1650 | 0.369 | 0.317 | 0.332 | 0.353 | 0.216 | 0.195 | 0.185 | 0.216 | 0.199 | 0.193 | 0.842 | 0.518 | 0.641 | 0.487 | 0.443 | 0.579 | 0.631 | 0.526 | 0.466 | 0.354 |
| NCI-H3122 | 0.179 | 0.135 | 0.172 | 0.172 | 0.182 | 0.0896 |  | 0.1 | 0.0781 | 0.11 | 0.979 | 0.53 | 0.769 | 0.744 | 0.778 | 0.607 | 0.63 | 0.432 | 0.509 | 0.506 |
| PC-3 [JPC-3] | 0.477 | 0.615 | 0.543 | 0.498 | 0.476 | 0.81 | 0.584 | 0.63 | 0.605 | 0.66 | 0.727 | 0.761 | 0.716 | 0.65 | 0.672 | 0.825 | 0.954 | 0.652 | 0.712 | 0.652 |
| NCI-H1651 | 0.51 | 0.512 | 0.502 | 0.436 | 0.411 | 0.864 | 0.958 | 0.876 | 0.594 | 0.564 | 0.654 | 0.815 | 0.651 | 0.542 | 0.543 | 0.484 | 0.636 | 0.563 | 0.45 | 0.487 |
| NCI-H2087 | 0.28 | 0.288 | 0.241 | 0.16 | 0.151 | 0.192 | 0.188 | 0.158 | 0.193 | 0.231 | 0.617 | 0.533 | 0.497 | 0.273 | 0.432 | 1.03 | 1.12 | 0.508 | 0.813 | 0.832 |
